Test results as given in patent US11135186B2, “Regulators of the endoplasmic reticulum proteostasis network” (The Scripps Research Institute, priority 2015, dated 2021).

Columns and labels:
[1] = tested on: GFP-ATF6 in U2OS-GFP-ATF6 cells; test: ATF6 nuclear localization, high-content imaging; format: cell-based; conditions: 10 μM, 5 h
Protocol: 300 μL of 1.375×10^4 U2OS-GFP-ATF6 cells per ml were plated per well in 96 well imaging plate (ibidi 89626) and sealed with breathable seals (E&K Scientific T896100) two days prior to drug addition. Immediately prior to addition to cells, compounds were diluted to 6× in media from 500×DMSO stock and 60 μL 6× was added to cells for 1× final (0.2% DMSO).
After 5h, media was removed and cells were fixed in 4% PFA (Electron Microscopy Sciences 15714) in PHEM buffer (60 mM PIPES, 25 mM HEPES, 10 mM EGTA, 2 mM MgCl2-hexahydrate, pH 6.9) for 15 minutes at RT. […]
Images were analyzed using CellProfiler^7, MATLAB R2014a and GraphPad Prism 5. […] The ratio of the GFP intensity in the nucleus versus the ER was calculated for each cell and plotted as a histogram per well. A threshold for the minimum ratio of nuclear to ER signal corresponding to an activated (i.e. nuclear localized ATF6) cell was calculated as the minimum nuclear: ER ratio greater than 1 where the number of ER stressed cells (Tg) was greater than the corresponding unstressed control. Percent activation per well was calculated as the percentage of cells per well with a nuclear: ER ratio greater than the calculated threshold for that plate. […]

[2] = tested on: ALLC (amyloidogenic light chain); test: ALLC secretion from ALMC-2 cells after cycloheximide administration; format: cell-based, human; conditions: absence of new protein synthesis
[3] = tested on: ERSE-FLuc reporter (ATF6 arm of the UPR); test: ERSE-FLuc reporter, 96-well, HEK293T-Rex cells (SAR and S1P inhibition); format: cell-based; conditions: HEK293T-Rex; 10 μM
Protocol: HEK293T-Rex cells incorporating the ERSE-FLuc reporter and HEK293^DAX cells were plated approximately 20,000 cells/well in flat-bottomed, black 96-well assay plates (Costar, Corning, Inc.) overnight prior to compound administration. Cells were treated with compounds as described for 12-18 h then the plates were equilibrated to room temperature and 50 μL of SteadyLite (PerkinElmer) was added to each well. Luminescence activity was measured in a Safire II microplate reader with a 1000 ms integration time.

Compound	nuclear fraction of ATF6-GFP (ATF6 nuclear translocation) [1]	reduction in ALLC secretion after cycloheximide [2]	ERSE reporter activity relative to 263 [3]
Cc1ccc(O)c(N/C=C/C(=O)c2ccc(F)cc2)c1 [Compound 132]	significantly increased		
Cc1ccc(O)c(NC(=O)CCc2ccccc2)c1 [Compound 147]		~30%	
O=[N+]([O-])c1ccc(N/N=C/c2ccccc2O)cc1 [Compound 263]	significantly increased		slightly increase
